Measurements from US8093288B2, “Genipin derivatives and uses thereof” (Beth Israel Deaconess Medical Center, priority 2003, dated 2012).

Experiments:
[1] = system: UCP2 KO islets; experiment: Glucose-stimulated insulin secretion in UCP2 KO islets after chronic hyperglycemia; format: cell-based, mice; conditions: UCP2 KO islets after 72 hours at 25 mM glucose; 5 μM genipin; FIG. 12B
Method: Pancreatic islets were isolated from WT (FIG. 12A) or UCP2 KO mice (FIG. 12B) and subjected to chronic incubations at low (5.5 mM) and high glucose (25 mM). In a separate experiment, islets were isolated from ob/ob mice (FIG. 12C). Islets were incubated for a total of 72 hours and washed, and then insulin-secretion studies were performed using three different concentrations of glucose (5.5, 12.5, and 25 mM) with or without 5 μM genipin. Results are means±SEM of four independent experiments (FIGS. 12A and 12B) or eight to twenty repeats of one representative experiment (FIG. 12C). WT islets that were chronically incubated at low glucose released increasing amounts of insulin in response to increasing concentrations of glucose (FIG. 12A, left panel). Following chronic hyperglycemia, islets increased basal insulin release, but were completely unresponsive to glucose stimulation (FIG. 12A, middle panel). […] To assess the role of genipin in hyperglycemia-induced loss of glucose responsiveness, genipin was acutely added into islets during the insulin-release phase of the study. […] To see whether this effect of genipin is mediated by UCP2, islets were isolated from UCP2 KO mice and then incubated in chronic hyperglycemia. […]

[2] = system: high fat diet-fed UCP2 knockout mice; experiment: Blood glucose and insulin after genipin injection in high fat diet-fed UCP2 knockout mice; format: in vivo; conditions: high fat diet 24 weeks, 20 hours fasting, 300 μg genipin injected, thirty minutes after injection
Method: Wildtype and UCP2 knockout mice were placed on a high fat diet obtained from Research Diets Inc., New Brunswick, N.J. (cat. no. D12331, HFD). The fat source was coconut oil and comprised 58% of the total calories. The mice remained on the high fat diet for 24 weeks. After the 24 weeks, both the wildtype and the UCP2 knockout mice were obese (about 50-60 g). After 20 hours of fasting, the blood glucose and insulin levels of the mice were measured, then the mice were injected with 300 μg of genipin. Thirty minutes after injection the blood glucose and insulin levels of the mice were measured again. Blood glucose levels were assessed using a glucometer (One touch, Lifescan, Milpitas, Calif.). Serum insulin concentrations were assessed using mouse insulin as a standard (Rat Insulin ELISA Kit. cat. #INSKR020 Crystal Chem. Inc., Chicago, Ill.). […] A comparison of the effect of genipin on the blood glucose levels and insulin levels in wildtype and UCP2 knockout mice can be seen in FIGS. 7 and 10, respectively.

[3] = molecular target: T1, UCP2 (Mus musculus, UniProt P70406); experiment: Proton leak titration in isolated kidney mitochondria of wildtype mice with superoxide-generating system; format: biochemical; conditions: 50 μM genipin with 50 mM xanthine and 0.2 mU/3.5 mL xanthine oxidase, FIG. 2
T1 construct: Wildtype and UCP2 knockout mice were used for isolation of kidney mitochondria; from tissue; host or cells: kidney mitochondria of wildtype mice
T1 sequence (P70406 1-309): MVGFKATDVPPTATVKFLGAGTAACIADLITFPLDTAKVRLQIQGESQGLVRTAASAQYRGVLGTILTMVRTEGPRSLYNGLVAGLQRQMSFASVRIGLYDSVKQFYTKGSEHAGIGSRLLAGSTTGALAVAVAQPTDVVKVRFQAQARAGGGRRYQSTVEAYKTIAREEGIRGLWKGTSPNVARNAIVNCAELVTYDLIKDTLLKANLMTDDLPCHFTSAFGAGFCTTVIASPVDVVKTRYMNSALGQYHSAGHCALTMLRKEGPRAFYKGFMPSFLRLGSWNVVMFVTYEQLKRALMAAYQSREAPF

[4] = system: WT islets; experiment: Glucose-stimulated insulin secretion in WT islets after chronic hyperglycemia; format: cell-based, mice; conditions: WT islets after 72 hours at 25 mM glucose; 5 μM genipin acutely added; 5.5, 12.5, 25 mM glucose; FIG. 12A
Method: Pancreatic islets were isolated from WT (FIG. 12A) or UCP2 KO mice (FIG. 12B) and subjected to chronic incubations at low (5.5 mM) and high glucose (25 mM). In a separate experiment, islets were isolated from ob/ob mice (FIG. 12C). Islets were incubated for a total of 72 hours and washed, and then insulin-secretion studies were performed using three different concentrations of glucose (5.5, 12.5, and 25 mM) with or without 5 μM genipin. Results are means±SEM of four independent experiments (FIGS. 12A and 12B) or eight to twenty repeats of one representative experiment (FIG. 12C). WT islets that were chronically incubated at low glucose released increasing amounts of insulin in response to increasing concentrations of glucose (FIG. 12A, left panel). Following chronic hyperglycemia, islets increased basal insulin release, but were completely unresponsive to glucose stimulation (FIG. 12A, middle panel). […] To assess the role of genipin in hyperglycemia-induced loss of glucose responsiveness, genipin was acutely added into islets during the insulin-release phase of the study.

COC(=O)C1=CO[C@@H](O)[C@@H]2C(CO)=CC[C@H]12 [genipin]
glucose-stimulated insulin secretion (GSIS) [1]: no additional beneficial effect on GSIS
blood glucose levels ([2]; FIG. 6): little effect
insulin levels ([2]; FIG. 9): little effect
rate of proton leak as a function of mitochondrial membrane potential [3]: proton leak occurred at nearly the same mitochondria membrane potential as in the control
glucose-stimulated insulin secretion (GSIS) [4]: prevented the hyperglycemia-induced block in GSIS
